Measurements: patent publication US20250255891A1, “PHARMACEUTICAL COMPOSITION INJECTABLE INTO URINARY TRACT ORGAN CAVITY FOR PREVENTION OR TREATMENT OF UROTHELIAL CANCER” (NATIONAL UNIVERSITY CORPORATION KAGAWA UNIVERSITY, priority 2019, published 2025)

Tests used:
[1] = test system: RT112; assay: Cell survival assay (MTT assay), urothelial cancer cell line RT112; format: cell-based, human
Procedure: (§1) Three human urothelial cancer cell lines (RT112, 253J, and J82) were used to analyze the antitumor effect of rare sugars. Ten rare sugars of L-allulose, D-allulose, D-allose, L-fructose, D-mannose, L-sorbose, D-tagatose, D-galactose, D-sorbose, and L-tagatose were used, and D-glucose and D-fructose were used as monosaccharides other than the rare sugars. A minimum essential medium (MEM) containing D-glucose at 1,000 mg/l was used as the culture medium, and the antitumor effect of a rare sugar was evaluated in a prepared MEM containing a monosaccharide or a rare sugar at 10 mM, 25 mM, or 50 mM [in the drawings, indicated by (10), (25), or (50)]. An MEM containing no sugar was used for control. With the MEM, cell suspensions each at 5.0×10^4 cells/ml were prepared. Each suspension was distributed in a 96-well plate at 0.1 ml/well and then was incubated for 24 hours. The culture solution was then removed, next a culture solution containing a monosaccharide or a rare sugar at 10 mM, 25 mM, or 50 mM in the MEM was added at 0.1 ml/well, and the whole was incubated for 24 hours (#1 to #13). An MTT assay is a test method for determining survival and uses a color reaction of an insoluble formazan pigment (blue) formed by reduction of MTT as a tetrazolium salt. […] The coloration is measured with a microplate reader to determine the cell survival rate.

[2] = test system: 253J; assay: Cell survival assay (MTT assay), urothelial cancer cell line 253J; format: cell-based, human
Procedure: as §1

[3] = test system: J82; assay: Cell survival assay (MTT assay), urothelial cancer cell line J82; format: cell-based, human
Procedure: as §1

[4] = Basic safety tests (mutagenicity, biodegradability, acute oral toxicity, primary skin irritation, primary eye irritation); details: tests ordered to a designated laboratory
Description: The safety of D-allose required for use as a pharmaceutical component is probably sufficient because the rare sugar is a monosaccharide present even in a trace amount in nature. Mutagenicity test, biodegradability test, and three acute toxicity tests (acute oral toxicity test, primary skin irritation test, and primary eye irritation test) are established as the most basic safety tests.

[5] = compared with 11 other monosaccharides/rare sugars at 10-50 mM

O=C[C@H](O)[C@H](O)[C@H](O)[C@H](O)CO [D-allose]
survival rate as compared with the control ([1]; 10 mM, 25 mM and 50 mM in MEM, 24 hours, p<0.05, FIG. 1): significantly reduced the survival rate
antitumor effect relative to the other analyzed sugars [1, 5]: strongest antitumor effect among the analyzed sugars
survival rate as compared with the control ([2]; 10 mM, 25 mM and 50 mM in MEM, 24 hours, p<0.05, FIG. 2): significantly reduced the survival rate
antitumor effect relative to the other analyzed sugars [2, 5]: strongest antitumor effect among the analyzed sugars
survival rate as compared with the control ([3]; 10 mM, 25 mM and 50 mM in MEM, 24 hours, p<0.05, FIG. 3): significantly reduced the survival rate
antitumor effect relative to the other analyzed sugars [3, 5]: strongest antitumor effect among the analyzed sugars
result of basic safety tests [4]: sufficient safety
